This passage reports Ki results from US20240254115A1 (ACONDICIONAMIENTO TARRASENSE, priority 2021, published 2024).

The target of one assay is T1, human σ1 receptor (Homo sapiens, UniProt Q99720).
T1 construct: expressed in transfected cells; host or cells: HEK-293
Put plainly: Human σ1 receptor radioligand assay. The following applies: transfected HEK-293 membranes, 5 nM [3H](+)-pentazocine, 37° C. 120 minutes; + may also stand for 1-50% inhibition at 1 or 10 μM; read-out: Binding σ-1 Ki. In a few lines:
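Ki was derived from five test concentrations, or % inhibition was measured at a single 1 or 10 μM dose, against 5 nM [3H](+)-pentazocine. Incubation was 120 min at 37° C in 50 mM Tris-HCl pH 8 with 7 μg HEK-293 membranes, and 10 μM haloperidol set non-specific binding. Bound radioactivity was counted after filtration.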

The target in another assay is T2, human σ2/TMEM97 receptor (Homo sapiens, UniProt Q5BJF2).
T2 construct: expressed in transfected cells; host or cells: HEK-293
As to the kind of experiment: Binding assay to human σ2/TMEM97 receptor. The following applies: transfected HEK-293 membranes, 10 nM [3H]-DTG, 25° C. 120 minutes; + may also stand for 1-50% inhibition at 1 or 10 μM; read-out: Binding σ-2 Ki. The procedure, abridged:
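Membranes from transfected HEK-293 cells (15 µg) were incubated with 10 nM [3H]-DTG in 50 mM Tris-HCl pH 8.0 for 120 min at 25 °C, with 10 µM haloperidol defining non-specific binding. Filtration and scintillation counting followed. Compounds tested as % inhibition at 1 or 10 µM, or at five concentrations for Ki.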

Molecules are shown by their SMILES. A value given as a limit tells only on which side of the number the result lay.

T1 sequence (Q99720 whole entry): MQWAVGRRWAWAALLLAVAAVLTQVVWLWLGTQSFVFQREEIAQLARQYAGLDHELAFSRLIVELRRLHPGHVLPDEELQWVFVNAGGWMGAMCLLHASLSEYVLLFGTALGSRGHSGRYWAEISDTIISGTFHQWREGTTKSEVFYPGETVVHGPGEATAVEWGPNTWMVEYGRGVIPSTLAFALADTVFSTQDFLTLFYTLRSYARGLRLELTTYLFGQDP
T2 sequence (Q5BJF2 whole entry): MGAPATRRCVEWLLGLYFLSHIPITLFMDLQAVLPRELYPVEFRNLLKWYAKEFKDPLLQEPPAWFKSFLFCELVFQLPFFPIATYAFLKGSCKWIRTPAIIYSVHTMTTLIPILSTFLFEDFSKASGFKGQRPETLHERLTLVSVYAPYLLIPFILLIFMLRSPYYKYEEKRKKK

For the compound `O=C1OCCN1c1ccc(S(=O)(=O)N2CCC3(CCN(CC4CCOCC4)CC3)C2)cn1` [Example 153, 3-(5-((8-((Tetrahydro-2H-pyran-4-yl)methyl)-2,8-diazaspiro[4.5]decan-2-yl)sulfonyl)pyridin-2-yl)oxazolidin-2-one], the inhibition constant Ki on human σ1 receptor and at human σ2/TMEM97 receptor was under 100 nM in each case.

Turning to `CC(C)(C)CCN1CCCC2(CCN(S(=O)(=O)c3ccc(N4CCOC4=O)cn3)CC2)C1` [Example 154, 3-(6-((2-(3,3-Dimethylbutyl)-2,9-diazaspiro[5.5]undecan-9-yl)sulfonyl)pyridin-3-yl)oxazolidin-2-one], the inhibition constant (Ki) on human σ1 receptor and on human σ2/TMEM97 receptor was under 100 nM in each case.

On to `O=C1OCCN1c1ccc(S(=O)(=O)N2CCCC3(CCN(Cc4ccccc4)CC3)C2)cn1` [Example 155, 3-(5-((9-Benzyl-2,9-diazaspiro[5.5]undecan-2-yl)sulfonyl)pyridin-2-yl)oxazolidin-2-one], for which the Ki on human σ1 receptor and at human σ2/TMEM97 receptor was under 100 nM in each case.

On to `O=C1OCCN1c1ccc(S(=O)(=O)N2CCC3(CCN(Cc4cc(F)ccc4F)CC3)CC2)cn1` [Example 156, 3-(5-((9-(2,5-Difluorobenzyl)-3,9-diazaspiro[5.5]undecan-yl)sulfonyl)pyridin-2-yl)oxazolidin-3-2-one], for which the inhibitory constant (Ki) is over 1000 nM at human σ1 receptor and under 100 nM at human σ2/TMEM97 receptor.

For `N#Cc1cc(CN2CCC3(CC2)CCN(S(=O)(=O)c2ccc(N4CCOC4=O)nc2)CC3)ccc1F` [Example 157, 2-Fluoro-5-((9-((6-(2-oxooxazolidin-3-yl)pyridin-3-yl)sulfonyl)-3,9-diazaspiro[5.5]undecan-3-yl)methyl)benzonitrile], the inhibition constant Ki on human σ1 receptor is over 1000 nM; on human σ2/TMEM97 receptor, under 100 nM.

With `O=C1OCCN1c1ccc(S(=O)(=O)N2CCCC3(CCN(CC4CCOCC4)CC3)C2)cn1` [Example 158, 3-(5-((9-((Tetrahydro-2H-pyran-4-yl)methyl)-2,9-diazaspiro[5.5]undecan-2-yl)sulfonyl)pyridin-2-yl)oxazolidin-2-one], the Ki at human σ1 receptor and at human σ2/TMEM97 receptor was under 100 nM throughout.

With `O=C1OCCN1c1ccc(S(=O)(=O)N2CCCC3(CCN(Cc4ccccc4F)CC3)C2)cn1` [Example 159, 3-(5-((9-(2-Fluorobenzyl)-2,9-diazaspiro[5.5]undecan-2-yl)sulfonyl)pyridin-2-yl)oxazolidin-2-one], the Ki on human σ1 receptor and at human σ2/TMEM97 receptor was under 100 nM each time.

In the case of `O=C1OCCN1c1ccc(S(=O)(=O)N2CCCC3(CCN(Cc4cc(F)ccc4F)CC3)C2)cn1` [Example 160, 3-(5-((9-(2,5-Difluorobenzyl)-2,9-diazaspiro[5.5]undecan-2-yl)sulfonyl)pyridin-2-yl)oxazolidin-2-one], the Ki on human σ1 receptor and on human σ2/TMEM97 receptor was under 100 nM in each case.

Consider `N#Cc1cc(CN2CCC3(CCCN(S(=O)(=O)c4ccc(N5CCOC5=O)nc4)C3)CC2)ccc1F` [Example 161, 2-Fluoro-5-((2-((6-(2-oxooxazolidin-3-yl)pyridin-3-yl)sulfonyl)-2,9-diazaspiro[5.5]undecan-9-yl)methyl)benzonitrile], for which the inhibition constant Ki on human σ1 receptor and on human σ2/TMEM97 receptor was under 100 nM throughout.

`O=C1OCCN1c1ccc(S(=O)(=O)N2CCC3(CCN(Cc4cc(F)ccc4F)CC3)C2)cn1` [Example 162, 3-(5-((8-(2,5-Difluorobenzyl)-2,8-diazaspiro[4.5]decan-2-yl)sulfonyl)pyridin-2-yl)oxazolidin-2-one]: the Ki on human σ1 receptor was over 1000 nM; on human σ2/TMEM97 receptor it was under 100 nM.

As for `O=C1OCCN1c1ccc(S(=O)(=O)N2CCC3(CCN(Cc4ccccc4F)CC3)C2)cn1` [Example 163, 3-(5-((8-(2-Fluorobenzyl)-2,8-diazaspiro[4.5]decan-2-yl)sulfonyl)pyridin-2-yl)oxazolidin-2-one], the Ki at human σ1 receptor and on human σ2/TMEM97 receptor was 100 to 500 nM in each case.

As for `N#Cc1ccc(CN2CCC3(CC2)CCN(S(=O)(=O)c2ccc(N4CCOC4=O)nc2)C3)cc1F` [Example 164, 2-Fluoro-4-((2-((6-(2-oxooxazolidin-3-yl)pyridin-3-yl)sulfonyl)-2,8-diazaspiro[4.5]decan-8-yl)methyl)benzonitrile], the Ki at human σ1 receptor and on human σ2/TMEM97 receptor was 100 to 500 nM throughout.

Turning to `N#Cc1cc(CN2CCC3(CC2)CCN(S(=O)(=O)c2ccc(N4CCOC4=O)nc2)C3)ccc1F` [Example 165, 2-Fluoro-5-((2-((6-(2-oxooxazolidin-3-yl)pyridin-3-yl)sulfonyl)-2,8-diazaspiro[4.5]decan-8-yl)methyl)benzonitrile], the Ki on human σ1 receptor is over 1000 nM; on human σ2/TMEM97 receptor, 100 to 500 nM.

`O=C1OCCN1c1ccc(S(=O)(=O)N2CCC3(CCN(Cc4ccccc4F)CC3)CC2)cn1` [Example 166, 3-(5-((9-(2-Fluorobenzyl)-3,9-diazaspiro[5.5]undecan-3-yl)sulfonyl)pyridin-2-yl)oxazolidin-2-one]: the Ki is 500 to 1000 nM at human σ1 receptor and under 100 nM at human σ2/TMEM97 receptor.

For the compound `CN(Cc1ccccc1)[C@H]1CC[C@H](NS(=O)(=O)c2ccc(N3CCOC3=O)nc2)CC1` [Example 167, N-((1 r,4r)-4-(Benzyl(methyl)amino)cyclohexyl)-6-(2-oxooxazolidin-3-yl)pyridine-3-sulfonamide], the results for the inhibition constant (Ki) on human σ1 receptor and on human σ2/TMEM97 receptor were over 1000 nM and 100 to 500 nM, respectively.

In the case of `CN(CCC(C)(C)C)C1CCN(S(=O)(=O)c2ccc(N3CCC(F)(F)CC3)nc2)CC1` [Example 168, 1-((6-(4,4-Difluoropiperidin-1-yl)pyridin-3-yl)sulfonyl)-N-(3,3-dimethylbutyl)-N-methylpiperidin-4-amine], the Ki at human σ1 receptor and at human σ2/TMEM97 receptor was under 100 nM throughout.

For `CN(CC1CCOCC1)C1CCN(S(=O)(=O)c2ccc(N3CCC(F)(F)CC3)nc2)CC1` [Example 169, 1-((6-(4,4-Difluoropiperidin-1-yl)pyridin-3-yl)sulfonyl)-N-methyl-N-((tetrahydro-2H-pyran-4-yl)methyl)piperidin-4-amine], the Ki at human σ1 receptor is 100 to 500 nM; at human σ2/TMEM97 receptor, under 100 nM.

In the case of `O=S(=O)(c1ccc(N2CCC(F)(F)CC2)nc1)N1CCC(NCc2ccccc2)CC1` [Example 170], the Ki is over 1000 nM at human σ1 receptor and under 100 nM on human σ2/TMEM97 receptor.

On to `CN(Cc1ccc(C#N)cc1F)C1CCN(S(=O)(=O)c2ccc(N3CCC(F)(F)CC3)nc2)CC1` [Example 171, 4-(((1-((6-(4,4-Difluoropiperidin-1-yl)pyridin-3-yl)sulfonyl)piperidin-4-yl)(methyl)amino)methyl)-3-fluorobenzonitrile], for which the Ki at human σ1 receptor is over 1000 nM; at human σ2/TMEM97 receptor, under 100 nM.

`CN(Cc1ccccc1F)C1CCN(S(=O)(=O)c2ccc(N3CCC(F)(F)CC3)nc2)CC1` [Example 172, 1-((6-(4,4-Difluoropiperidin-1-yl)pyridin-3-yl)sulfonyl)-N-(2-fluorobenzyl)-N-methylpiperidin-4-amine]: the Ki on human σ1 receptor and on human σ2/TMEM97 receptor was under 100 nM in each case.

Turning to `CN(Cc1ccc(C#N)c(F)c1)C1CCN(S(=O)(=O)c2ccc(N3CCC(F)(F)CC3)nc2)CC1` [Example 173, 4-(((1-((6-(4,4-Difluoropiperidin-1-yl)pyridin-3-yl)sulfonyl)piperidin-4-yl)(methyl)amino)methyl)-2-fluorobenzonitrile], the Ki at human σ1 receptor was over 1000 nM; on human σ2/TMEM97 receptor, under 100 nM.

`CN(Cc1cc(F)ccc1F)C1CCN(S(=O)(=O)c2ccc(N3CCC(F)(F)CC3)nc2)CC1` [Example 174, N-(2,5-Difluorobenzyl)-1-((6-(4,4-difluoropiperidin-1-yl)pyridin-3-yl)sulfonyl)-N-methylpiperidin-4-amine]: the Ki on human σ1 receptor and at human σ2/TMEM97 receptor was 100 to 500 nM in each case.
